Strand notation (5' to 3'): a small letter for the sugar, then the base; units joined by * are phosphorothioate-linked, units joined directly phosphodiester-linked; [ ] holds rarer units or linkages, { } end groups; capitals alone tell only the bases. k = constrained ethyl (cEt); [5mC] = 5-methylcytosine; d = 2'-deoxy (DNA)
Test system: Yap1 mRNA
Assay: Antisense inhibition of human Yap1 in A-431 cells by cEt gapmers, single dose (Example 2, RTS4814)
Assay type: cell-based
Method in brief: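 A-431 cells (5,000/well) took up 2,000 nM 3-10-3 cEt gapmer by free uptake for ~48 h. Yap1 mRNA was quantified by qRT-PCR with primer probe set RTS4814, normalized to RIBOGREEN total RNA, and reported as % of untreated control.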

[1] = Table 6, A-431 cells, 5,000 cells per well, free uptake, 2,000 nM modified oligonucleotide, approx. 48 hours, RTS4814, normalized to RIBOGREEN, Yap1 mRNA relative to untreated control cells
[2] = Table 24, Yap1 mRNA as percent of untreated control, 3-10-3 cEt gapmers targeting SEQ ID NO.: 1, and 2
[3] = Table 33, Yap1 mRNA, percent of untreated control, 3-10-3 cEt gapmers targeting SEQ ID NO.: 1, and 2
[4] = Table 21, Yap1 mRNA, percent of untreated control, 3-10-3 cEt gapmers targeting SEQ ID NO.: 1 and 2
[5] = Table 20, Yap1 mRNA, percent of untreated control, 3-10-3 cEt gapmers targeting SEQ ID NO.: 1 and 2
[6] = Table 18, A-431 cells, 5,000 cells per well, free uptake, 2,000 nM modified oligonucleotide, approx. 48 hours, RTS4814, normalized to RIBOGREEN, Yap1 mRNA as percent of untreated control
[7] = Table 23, Yap1 mRNA as percent of untreated control, 3-10-3 cEt gapmers, single dose
[8] = Table 19, A-431 cells, 5,000 cells per well, free uptake, 2,000 nM modified oligonucleotide, approx. 48 hours, RTS4814, normalized to RIBOGREEN, Yap1 mRNA as percent of untreated control
[9] = A-431 cells, 5,000 cells per well, free uptake, 2,000 nM modified oligonucleotide, approx. 48 hours, RTS4814, normalized to RIBOGREEN, Table 4, asterisk (*) = targets amplicon region of primer probe set
[10] = Yap1 mRNA as percent of untreated control, A-431 cells, 3-10-3 cEt gapmers targeting SEQ ID NO.: 1, and 2, Table 30
[11] = Table 5, A-431 cells, 5,000 cells per well, free uptake, 2,000 nM modified oligonucleotide, approx. 48 hours, RTS4814, normalized to RIBOGREEN, Yap1 mRNA relative to untreated control cells
[12] = Table 22, Yap1 mRNA as percent of untreated control, 3-10-3 cEt gapmers, single dose

716432 (kT*k[5mC]*kT*dG*dA*dG*dT*dA*dT*dT*dT*dA*dG*kT*kT*kA; antisense) [Compound 716432]
YAP1 (% UTC) [1]: 30 % UTC

1074186 (antisense kG*kG*kG*d[5mC]*d[5mC]*dG*dG*dT*dT*dG*dA*dG*dG*k[5mC]*kG*kG) [Compound 1074186]
YAP1 (% UTC) [2]: 74 % UTC

1076531 (kA*k[5mC]*kT*dA*dT*dA*dA*dA*dG*dG*dG*dT*dT*kT*kA*kG; antisense) [compound 1076531]
YAP1 (% UTC) [3]: 66 % UTC

1075530 (kG*kA*kA*dA*dT*d[5mC]*dG*dA*dA*dG*dG*dG*d[5mC]*kA*kA*kA; antisense) [Compound 1075530]
YAP1 (% UTC) [2]: 30 % UTC

1074535 (antisense kG*kT*kA*dA*dT*dA*dG*d[5mC]*dT*d[5mC]*dT*dT*dT*k[5mC]*kT*kA) [Compound 1074535]
YAP1 (% UTC) [4]: 5 % UTC

1074246 (antisense kA*kA*kG*dA*dA*dG*dT*dA*dT*d[5mC]*dT*d[5mC]*dT*kG*kA*k[5mC]) [Compound 1074246]
YAP1 (% UTC) [5]: 11 % UTC

1074251 (antisense kT*k[5mC]*kT*dG*dA*dT*d[5mC]*dG*dA*dT*dG*dT*dG*kA*kT*kT) [Compound 1074251]
YAP1 (% UTC) (Table 25, Yap1 mRNA as percent of untreated control, 3-10-3 cEt gapmers targeting SEQ ID NO.: 1, and 2): 7 % UTC

1074916 (antisense kA*kA*kG*dT*dT*dA*d[5mC]*dA*dT*d[5mC]*d[5mC]*d[5mC]*dG*kA*kG*kT) [Compound 1074916]
YAP1 (% UTC) [6]: 75 % UTC

1075972 (kT*k[5mC]*kA*d[5mC]*dA*dA*dG*dG*dG*d[5mC]*dT*dA*dA*kT*kT*k[5mC]; antisense) [Compound 1075972]
YAP1 (% UTC) [6]: 22 % UTC

1076337 (antisense kA*kT*kT*dA*dA*dA*d[5mC]*d[5mC]*dA*dG*dG*dG*dA*k[5mC]*kT*kG) [compound 1076337]
YAP1 (% UTC) (Yap1 mRNA as percent of untreated control, A-431 cells, 3-10-3 cEt gapmers targeting SEQ ID NO.: 1, and 2, Table 31): 25 % UTC

1076233 (k[5mC]*k[5mC]*kA*dA*dT*dA*dA*dA*dG*d[5mC]*dA*dA*dG*kT*kA*kG; antisense) [Compound 1076233]
YAP1 (% UTC) [7]: 13 % UTC

1074153 (antisense k[5mC]*kA*k[5mC]*dG*dG*dG*d[5mC]*d[5mC]*dG*dA*dG*dG*dT*kG*kG*kA) [Compound 1074153]
YAP1 (% UTC) [7]: 78 % UTC

1076358 (kG*kT*kT*dT*dA*dA*d[5mC]*dA*dA*dA*d[5mC]*dT*dT*kG*kT*kA; antisense) [Compound 1076358]
YAP1 (% UTC) [5]: 43 % UTC

1074342 (antisense k[5mC]*kA*kT*d[5mC]*d[5mC]*d[5mC]*dG*dG*dG*dA*dG*dA*dA*kG*kA*k[5mC]) [Compound 1074342]
YAP1 (% UTC) [5]: 56 % UTC

1076261 (k[5mC]*k[5mC]*k[5mC]*d[5mC]*dA*dA*d[5mC]*dA*dA*dG*dT*dT*d[5mC]*k[5mC]*kT*kG; antisense) [Compound 1076261]
YAP1 (% UTC) [8]: 39 % UTC

1074948 (antisense kG*kA*kG*dT*dT*d[5mC]*d[5mC]*dA*dA*dA*dA*d[5mC]*d[5mC]*k[5mC]*kT*kT) [Compound 1074948]
YAP1 (% UTC) [6]: 61 % UTC

1075430 (antisense k[5mC]*kT*kT*dA*dA*d[5mC]*dT*dA*dA*d[5mC]*dT*dT*dG*kA*k[5mC]*k[5mC]) [Compound 1075430]
YAP1 (% UTC) [5]: 96 % UTC

716508 (antisense k[5mC]*kT*kA*dG*dG*dT*dA*dG*dA*dA*dT*dT*dT*k[5mC]*kA*kT) [Compound 716508]
YAP1 (% UTC) [9]: 67 % UTC

716481 (kT*k[5mC]*kA*dG*d[5mC]*dA*dT*dA*dG*dA*dA*dG*dT*kA*kG*kG; antisense) [Compound 716481]
YAP1 (% UTC) [9]: 23 % UTC

1075396 (kA*kT*kT*dA*dT*d[5mC]*dG*d[5mC]*dA*d[5mC]*dA*dT*dA*k[5mC]*kA*kT; antisense) [Compound 1075396]
YAP1 (% UTC) [6]: 89 % UTC

1074256 (antisense k[5mC]*kA*k[5mC]*dT*dG*dG*dT*dG*dG*dA*d[5mC]*dT*dG*kG*kT*kG) [compound 1074256]
YAP1 (% UTC) [10]: 64 % UTC

1075783 (k[5mC]*kT*kT*dA*dA*dT*dT*dT*dA*d[5mC]*d[5mC]*dT*dG*kA*kA*k[5mC]; antisense) [Compound 1075783]
YAP1 (% UTC) [4]: 36 % UTC

1076393 (k[5mC]*kT*kT*dT*dA*d[5mC]*dT*dT*dA*d[5mC]*dT*dG*dG*kT*kG*kG; antisense) [Compound 1076393]
YAP1 (% UTC) [7]: 4 % UTC

716452 (kT*kT*kA*d[5mC]*d[5mC]*dA*dA*dA*dA*d[5mC]*dA*dA*d[5mC]*kT*kA*k[5mC]; antisense) [Compound 716452]
YAP1 (% UTC) [11]: 98 % UTC

1074410 (antisense kT*kA*kG*dA*dG*dG*dA*dT*dT*dA*dA*dA*dG*kT*kA*kT) [Compound 1074410]
YAP1 (% UTC) [2]: 32 % UTC

1075923 (antisense kT*kT*kT*dA*dA*dT*dA*d[5mC]*dT*d[5mC]*dT*d[5mC]*dT*kG*kG*kG) [compound 1075923]
YAP1 (% UTC) [3]: 42 % UTC

716457 (kA*kA*kA*dG*dG*dA*dT*dA*d[5mC]*dA*dT*dT*d[5mC]*k[5mC]*kA*k[5mC]; antisense) [Compound 716457]
YAP1 (% UTC) [9]: 61 % UTC

1076403 (antisense kA*kT*kT*dT*dA*dA*dG*dA*d[5mC]*d[5mC]*dT*dG*dG*kT*kG*kA) [compound 1076403]
YAP1 (% UTC) [3]: 26 % UTC

1075333 (kA*kG*kT*dT*dA*dA*d[5mC]*dA*dA*dA*dG*d[5mC]*dG*kG*kG*kT; antisense) [Compound 1075333]
YAP1 (% UTC) [8]: 14 % UTC

1076006 (kT*kT*kT*dA*dA*dA*d[5mC]*d[5mC]*dT*dG*dA*dG*dA*k[5mC]*kT*k[5mC]; antisense) [Compound 1076006]
YAP1 (% UTC) [5]: 41 % UTC

716417 (kT*kG*kT*dA*dA*dG*dA*dA*dA*dG*d[5mC]*dT*dT*kT*k[5mC]*kT; antisense) [Compound 716417]
YAP1 (% UTC) [1]: 78 % UTC

1075786 (k[5mC]*kT*kA*dT*dA*dT*dT*dG*dA*dT*dT*d[5mC]*d[5mC]*kA*kG*kA; antisense) [Compound 1075786]
YAP1 (% UTC) [2]: 19 % UTC

1074992 (antisense k[5mC]*kA*kA*dT*dT*dA*dT*dT*dT*dG*dA*d[5mC]*dT*k[5mC]*k[5mC]*k[5mC]) [compound 1074992]
YAP1 (% UTC) [10]: 63 % UTC

1076484 (antisense kG*kA*kA*dA*d[5mC]*dG*dG*dG*dA*dA*dA*dT*d[5mC]*kA*kT*kA) [Compound 1076484]
YAP1 (% UTC) [6]: 10 % UTC

1075877 (k[5mC]*kT*kG*dG*dA*dA*dA*dA*dG*dT*dA*d[5mC]*dA*kT*kT*k[5mC]; antisense) [Compound 1075877]
YAP1 (% UTC) [8]: 28 % UTC

1075976 (kA*kT*kT*dA*dA*dA*dA*dG*dT*d[5mC]*dG*dG*dG*k[5mC]*k[5mC]*kA; antisense) [Compound 1075976]
YAP1 (% UTC) [12]: 92 % UTC

1076101 (kA*kA*kA*dT*dA*dA*dG*dG*dG*dA*d[5mC]*dT*dA*k[5mC]*kT*kT; antisense) [Compound 1076101]
YAP1 (% UTC) [8]: 71 % UTC

716480 (kG*k[5mC]*kA*dA*dG*dT*d[5mC]*dT*dT*dG*dT*dA*dA*kG*kT*kA; antisense) [Compound 716480]
YAP1 (% UTC) [1]: 18 % UTC

1074788 (kT*k[5mC]*kA*dA*d[5mC]*d[5mC]*dA*dT*dA*dA*dG*dT*dA*kG*kA*kT; antisense) [Compound 1074788]
YAP1 (% UTC) [6]: 25 % UTC

1075368 (kG*kA*kG*dA*dA*dT*dA*dA*dG*d[5mC]*dA*dA*dT*k[5mC]*kA*kG; antisense) [Compound 1075368]
YAP1 (% UTC) [12]: 24 % UTC

1076519 (antisense kA*k[5mC]*kA*d[5mC]*dA*dA*d[5mC]*dA*d[5mC]*dG*dA*d[5mC]*dA*kG*k[5mC]*kA) [Compound 1076519]
YAP1 (% UTC) [4]: 31 % UTC

1075812 (k[5mC]*kA*kT*dT*dA*dA*dG*dA*dT*dT*dT*dT*dA*kA*k[5mC]*k[5mC]; antisense) [Compound 1075812]
YAP1 (% UTC) [6]: 103 % UTC

1076176 (k[5mC]*kT*k[5mC]*d[5mC]*dA*dA*dT*dA*dG*dG*dT*dA*dA*k[5mC]*kA*kG; antisense) [compound 1076176]
YAP1 (% UTC) [10]: 43 % UTC

1075271 (antisense kG*kA*kT*dG*dT*dG*dA*dT*d[5mC]*dT*dG*dT*dG*kA*kG*kA) [Compound 1075271]
YAP1 (% UTC) [4]: 11 % UTC

716560 (kT*kA*kA*d[5mC]*dA*dA*dT*dT*dT*dA*dT*dG*dT*kA*kA*kG; antisense) [Compound 716560]
YAP1 (% UTC) [11]: 107 % UTC

1075721 (kT*kT*kA*dA*dA*dT*dA*d[5mC]*d[5mC]*dT*dT*d[5mC]*dT*kA*kG*k[5mC]; antisense) [Compound 1075721]
YAP1 (% UTC) [7]: 67 % UTC

From US11214803B2, “Modulators of YAP1 expression” (Ionis Pharmaceuticals, Inc., priority 2019, dated 2022)
